Measurements as given in patent US6727253B2, “Treatment of accidental extravasation of anthracyclines” (Antianthra APS, priority 1999, dated 2004).
Like-named read-outs stand apart in the source and are kept apart here.

Columns and labels:
[1] = system: SC idarubicin induced wounds in mice; settings: for AUC / DW / FW / TTW: Table A
Description: The mice were euthanized after healing of all wounds.
[…] Half of the groups served a saline controls, whereas in the other half of the groups ICRF-187 250 mg/kg was administered IP at t=0.

[2] = system: wound after doxorubicin SC in swine; assay: Pilot study on swine, doxorubicin SC; assay type: in vivo; settings: 3 mg doxorubicin SC, ICRF-187 25 mg/kg IV at t=0
Description: A danish porker weighting approximately 30 kg was used. The animals were fully anesthesized and artificially ventilated during SC injection of 1 ml of anthracycline.

[3] = Example 9, idarubicin 0.05 mg/kg sc + ICRF-187 250 mg/kg IP at t=0
[4] = Example 9, idarubicin 0.25 mg/kg sc + ICRF-187 250 mg/kg IP at t=0
[5] = Example 9, idarubicin 0.75 mg/kg sc + ICRF-187 250 mg/kg IP at t=0
[6] = idarubicin 0.05 mg/kg SC + DEX 250 mg/kg IP at t=0
[7] = idarubicin 0.25 mg/kg SC + DEX 250 mg/kg IP at t=0
[8] = idarubicin 0.75 mg/kg SC + DEX 250 mg/kg IP at t=0, pooled data
[9] = idarubicin 1.50 mg/kg SC + DEX 250 mg/kg IP at t=0

C[C@@H](CN1CC(=O)NC(=O)C1)N1CC(=O)NC(=O)C1 [ICRF-187, (+)-1,2-bis(3,5-dioxopiperazinyl-1-yl)propane]
Mean AUC [1, 3]: 4 mm^2 × days | Mean DWw ± SEM [1, 3]: 13.0 ± 0.0 days | Mean TTWw ± SEM [1, 3]: 12.0 ± 0.0 days | Nw/NG [1, 3]: 11% | Mean AUC [1, 4]: 38 mm^2 × days | Mean DWw ± SEM [1, 4]: 20.0 ± 0.0 days | Mean TTWw ± SEM [1, 4]: 6.0 ± 0.0 days | Nw/NG [1, 4]: 11% | Mean AUC [1, 5]: 44 mm^2 × days | Mean DWw ± SEM [1, 5]: 17.5 ± 0.5 days | Mean TTWw ± SEM [1, 5]: 8.0 ± 0.0 days | Nw/NG [1, 5]: 22% | reduction in the AUC ([1]; Example 9, idarubicin 0.75 mg/kg sc, ICRF-187 250 mg/kg IP vs saline, p<0.05): 90% | AUC [1, 6]: 4 (± 4) mm^2×days | DW [1, 6]: 13.0 (± 0.0) days | FW [1, 6]: 11% | TTW [1, 6]: 12.0 (± 0.0) days | AUC [1, 7]: 38 (± 38) mm^2×days | DW [1, 7]: 20.0 (± 0.0) days | FW [1, 7]: 11% | TTW [1, 7]: 6.0 (± 0.0) days | AUC [1, 8]: 42 (± 19) mm^2×days | DW [1, 8]: 15.6 (± 2.7) days | FW [1, 8]: 28% | TTW [1, 8]: 10.2 (± .5) days | AUC [1, 9]: 183 (± 54) mm^2×days | DW [1, 9]: 17.8 (± 0.9) days | FW [1, 9]: 75% | TTW [1, 9]: 7.7 (± 0.2) days | deaths due to the treatment ([1]; mouse, in vivo): no deaths due to the treatment | ulcer development [2]: did not develope an ulcer
